Test results published in ChEMBL document CHEMBL1201862, “PubChem BioAssay data set” (2004).
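Briefly, cells in 96-well plates were exposed to five compound concentrations for 48 h, and endpoints were estimated by linear interpolation. At the GI50, growth is halved.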 Calls of active or inactive are those of the source. Cut-off read from the data, not from the text of the source: active = GI50 up to about 1.1 µM and inactive = higher.

Tests used:
Assay in all cases: inhibition of tumour cell growth, NCI panel, 48 h
OVCAR-4 = test system: OVCAR-4
NCI-H226 = test system: NCI-H226
Malme-3M = test system: Malme-3M
CAKI-1 = test system: CAKI-1
NCI-H460 = test system: NCI-H460
SF-268 = test system: SF-268
DU-145 = test system: DU-145
SR = test system: SR
BT-549 = test system: BT-549
CCRF-CEM = test system: CCRF-CEM
TK-10 = test system: TK-10
A498 = test system: A498
UO-31 = test system: UO-31
HCC 2998 = test system: HCC 2998
SNB-75 = test system: SNB-75
SF-539 = test system: SF-539
Hs-578T = test system: Hs-578T
NCI/ADR-RES = test system: NCI/ADR-RES
OVCAR-3 = test system: OVCAR-3
HOP-92 = test system: HOP-92

Row | SMILES | GI50 (OVCAR-4) | GI50 (NCI-H226) | GI50 (Malme-3M) | GI50 (CAKI-1) | GI50 (NCI-H460) | GI50 (SF-268) | GI50 (DU-145) | GI50 (SR) | GI50 (BT-549) | GI50 (CCRF-CEM) | GI50 (TK-10) | GI50 (A498) | GI50 (UO-31) | GI50 (HCC 2998) | GI50 (SNB-75) | GI50 (SF-539) | GI50 (Hs-578T) | GI50 (NCI/ADR-RES) | GI50 (OVCAR-3) | GI50 (HOP-92)
1 | Cc1occc1C(=S)Nc1ccc(Cl)c(C(=O)OC(C)C2CC2)c1 (stereo not given) | 15.3 µM (inactive) | 15.5 µM (inactive) | 16.4 µM (inactive) | 18.7 µM (inactive) | 35.7 µM (inactive) | 22.6 µM (inactive) | 28.1 µM (inactive) | 18.3 µM (inactive) | 22.5 µM (inactive) | 50.1 µM (inactive) | 37.5 µM (inactive) | 22.3 µM (inactive) | 14.7 µM (inactive) | 20.3 µM (inactive) | 20.4 µM (inactive) | 22.3 µM (inactive) | 27.7 µM (inactive) | 19.3 µM (inactive) | 16.6 µM (inactive) | 23.5 µM (inactive)
2 | O=C(NCCN1CCCC1)c1cn2c(ccc3sc4ccccc4c(=O)c32)n1 | 12.3 µM (inactive) | 17 µM (inactive) | 16 µM (inactive) | 11.4 µM (inactive) | 1.01 µM (active) | 12.4 µM (inactive) | 13.2 µM (inactive) | 1.17 µM (inactive) | 17.6 µM (inactive) | 1.22 µM (inactive) | 12.5 µM (inactive) | 16.3 µM (inactive) | 13.3 µM (inactive) | 6.56 µM (inactive) | 19.1 µM (inactive) | 14.9 µM (inactive) | 17 µM (inactive) | 13.3 µM (inactive) | 14.7 µM (inactive) | 15.2 µM (inactive)
3 | CN(C)CCCSc1nc2c(c(=N)n1-c1ccccc1)c(=S)n(-c1ccccc1)c(=S)n2-c1ccccc1 | 1.79 µM (inactive) | 4.74 µM (inactive) | 2.04 µM (inactive) | 1.77 µM (inactive) | 1.82 µM (inactive) | 1.73 µM (inactive) | 1.67 µM (inactive) | 0.237 µM (active) | 1.68 µM (inactive) | 0.43 µM (active) | 1.71 µM (inactive) | 2.42 µM (inactive) | – | 1.45 µM (inactive) | 1.63 µM (inactive) | 2.52 µM (inactive) | 3.12 µM (inactive) | 2.59 µM (inactive) | 1.75 µM (inactive) | 1.8 µM (inactive)
4 | COc1ccc(C[N+](C)(C)N)cc1OC | > 10 µM (inactive) | > 100 µM (inactive) | > 10 µM (inactive) | > 10 µM (inactive) | > 100 µM (inactive) | > 10 µM (inactive) | > 10 µM (inactive) | > 10 µM (inactive) | > 10 µM (inactive) | > 10 µM (inactive) | > 10 µM (inactive) | > 100 µM (inactive) | > 100 µM (inactive) | > 10 µM (inactive) | > 10 µM (inactive) | > 10 µM (inactive) | > 10 µM (inactive) | > 10 µM (inactive) | > 10 µM (inactive) | > 10 µM (inactive)
5 | COc1ccccc1Nc1nc(N)nc(N)c1N | > 100 µM (inactive) | > 100 µM (inactive) | > 100 µM (inactive) | 58.7 µM (inactive) | 38.5 µM (inactive) | 64.1 µM (inactive) | > 100 µM (inactive) | 23.7 µM (inactive) | > 100 µM (inactive) | 27 µM (inactive) | > 100 µM (inactive) | > 100 µM (inactive) | > 100 µM (inactive) | > 100 µM (inactive) | > 100 µM (inactive) | 50.6 µM (inactive) | > 100 µM (inactive) | > 100 µM (inactive) | 43.9 µM (inactive) | > 100 µM (inactive)
6 | CN1CCN(CCCCN2c3ccccc3Sc3ccc(N=[N+]=[N-])cc32)CC1 | 10.2 µM (inactive) | 14.3 µM (inactive) | 2.43 µM (inactive) | 7.29 µM (inactive) | 6.01 µM (inactive) | 9.71 µM (inactive) | 12.9 µM (inactive) | 2.58 µM (inactive) | 9.77 µM (inactive) | 2.6 µM (inactive) | 12.7 µM (inactive) | 13.8 µM (inactive) | 7.57 µM (inactive) | 3.74 µM (inactive) | 4.55 µM (inactive) | 7.35 µM (inactive) | 7.31 µM (inactive) | 11.7 µM (inactive) | 8.07 µM (inactive) | 2.75 µM (inactive)
7 | O=C(Nc1ccc(Cl)c(Cl)c1)N1N=C2c3ccccc3CCC2C1c1ccc(Cl)cc1 (stereo not given) | > 100 µM (inactive) | > 100 µM (inactive) | > 100 µM (inactive) | > 100 µM (inactive) | > 100 µM (inactive) | > 100 µM (inactive) | > 100 µM (inactive) | > 100 µM (inactive) | > 100 µM (inactive) | > 100 µM (inactive) | > 100 µM (inactive) | > 100 µM (inactive) | > 100 µM (inactive) | > 100 µM (inactive) | > 100 µM (inactive) | > 100 µM (inactive) | > 100 µM (inactive) | > 100 µM (inactive) | > 100 µM (inactive) | > 100 µM (inactive)
8 | CCOC(=O)Nc1cc2c(c(N)n1)N=C(c1ccc(OC)cc1)CN2 | 0.757 µM (active) | 0.368 µM (active) | 0.0101 µM (active) | < 0.0001 µM (active) | 0.00226 µM (active) | 0.00119 µM (active) | 0.000407 µM (active) | < 0.0001 µM (active) | < 0.01 µM (active) | 0.0016 µM (active) | 0.361 µM (active) | 0.282 µM (active) | 0.206 µM (active) | 0.000925 µM (active) | 0.000188 µM (active) | – | 0.000494 µM (active) | 0.00126 µM (active) | 0.00044 µM (active) | 0.508 µM (active)
9 | COC(=O)C[C@H](CCSC)NC(=O)C[C@H](CCSC)NC(=O)C[C@H](CCSC)NC(=O)OC(C)(C)C | 20.3 µM (inactive) | 41.7 µM (inactive) | > 100 µM (inactive) | > 100 µM (inactive) | 69.8 µM (inactive) | 20.4 µM (inactive) | 87.3 µM (inactive) | 39.6 µM (inactive) | 69.3 µM (inactive) | 67.1 µM (inactive) | 19.1 µM (inactive) | 21 µM (inactive) | > 100 µM (inactive) | > 100 µM (inactive) | 13.4 µM (inactive) | 17.5 µM (inactive) | 30.3 µM (inactive) | > 100 µM (inactive) | 22.5 µM (inactive) | 16.3 µM (inactive)
10 | C=CCc1c(O)c2ccccc2[nH]c1=O | > 100 µM (inactive) | > 100 µM (inactive) | > 100 µM (inactive) | > 100 µM (inactive) | > 100 µM (inactive) | – | > 100 µM (inactive) | > 100 µM (inactive) | > 100 µM (inactive) | > 100 µM (inactive) | > 100 µM (inactive) | > 100 µM (inactive) | > 100 µM (inactive) | > 100 µM (inactive) | > 100 µM (inactive) | > 100 µM (inactive) | > 100 µM (inactive) | > 100 µM (inactive) | > 100 µM (inactive) | > 100 µM (inactive)
11 | Nc1ncnc2c1ncn2CCCNO | > 100 µM (inactive) | > 100 µM (inactive) | > 100 µM (inactive) | > 100 µM (inactive) | > 100 µM (inactive) | > 100 µM (inactive) | > 100 µM (inactive) | > 100 µM (inactive) | > 100 µM (inactive) | > 100 µM (inactive) | > 100 µM (inactive) | > 100 µM (inactive) | > 100 µM (inactive) | > 100 µM (inactive) | > 100 µM (inactive) | > 100 µM (inactive) | > 100 µM (inactive) | > 100 µM (inactive) | > 100 µM (inactive) | > 100 µM (inactive)
12 | Nc1ccc(-c2nc3cc(F)ccc3s2)cc1Br | 23.8 µM (inactive) | 0.0504 µM (active) | 33 µM (inactive) | 3.99 µM (inactive) | 0.0458 µM (active) | 42 µM (inactive) | 55.7 µM (inactive) | < 0.01 µM (active) | 7.69 µM (inactive) | > 100 µM (inactive) | 0.0306 µM (active) | 14.7 µM (inactive) | 37.6 µM (inactive) | < 0.01 µM (active) | 18.3 µM (inactive) | > 41.5 µM (inactive) | 36.7 µM (inactive) | > 56.8 µM (inactive) | 0.0964 µM (active) | 29.1 µM (inactive)
13 | Cc1c(O)oc2ccccc2c1=O | > 100 µM (inactive) | > 100 µM (inactive) | > 100 µM (inactive) | > 100 µM (inactive) | > 100 µM (inactive) | > 100 µM (inactive) | > 100 µM (inactive) | > 100 µM (inactive) | > 100 µM (inactive) | > 100 µM (inactive) | – | > 100 µM (inactive) | > 100 µM (inactive) | > 100 µM (inactive) | > 100 µM (inactive) | > 100 µM (inactive) | > 100 µM (inactive) | > 100 µM (inactive) | > 100 µM (inactive) | > 100 µM (inactive)
14 | NS(=O)(=O)c1ccc(/N=N/c2nc3nc(O)nc(O)c3[nH]2)cc1 | > 100 µM (inactive) | > 100 µM (inactive) | > 100 µM (inactive) | > 100 µM (inactive) | > 100 µM (inactive) | > 100 µM (inactive) | > 100 µM (inactive) | 39.8 µM (inactive) | > 100 µM (inactive) | – | > 100 µM (inactive) | > 100 µM (inactive) | > 100 µM (inactive) | > 100 µM (inactive) | > 100 µM (inactive) | > 100 µM (inactive) | > 100 µM (inactive) | > 100 µM (inactive) | > 100 µM (inactive) | > 100 µM (inactive)
